Reference: ChEMBL document CHEMBL1201862, “PubChem BioAssay data set” (2004)
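Where inhibition never reached the appropriate level, the endpoint shown equals the highest concentration tested. Otherwise, values were interpolated linearly from a five-concentration, 48-hour dose response in 96-well plates. GI50 is the concentration that inhibits growth by half.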 Active and inactive are the calls of the source. No stated cut-off is given here; in the data, active = GI50 up to about 1.1 µM and inactive = higher.

Columns and labels:
Assay in all cases: growth of human tumour cells (NCI), 48 h
A549 = system: A549
CCRF-CEM = system: CCRF-CEM
COLO 205 = system: COLO 205
EKVX = system: EKVX
HCC 2998 = system: HCC 2998
HCT-15 = system: HCT-15
HOP-92 = system: HOP-92
HT-29 = system: HT-29
KM12 = system: KM12
LOX IMVI = system: LOX IMVI
NCI-H460 = system: NCI-H460
RXF 393 = system: RXF 393
SF-295 = system: SF-295
SK-MEL-5 = system: SK-MEL-5
SK-OV-3 = system: SK-OV-3
SN12C = system: SN12C
SNB-75 = system: SNB-75
TK-10 = system: TK-10
UACC-257 = system: UACC-257
UO-31 = system: UO-31

| SMILES | GI50 (A549) | GI50 (CCRF-CEM) | GI50 (COLO 205) | GI50 (EKVX) | GI50 (HCC 2998) | GI50 (HCT-15) | GI50 (HOP-92) | GI50 (HT-29) | GI50 (KM12) | GI50 (LOX IMVI) | GI50 (NCI-H460) | GI50 (RXF 393) | GI50 (SF-295) | GI50 (SK-MEL-5) | GI50 (SK-OV-3) | GI50 (SN12C) | GI50 (SNB-75) | GI50 (TK-10) | GI50 (UACC-257) | GI50 (UO-31) |
| --- | --- | --- | --- | --- | --- | --- | --- | --- | --- | --- | --- | --- | --- | --- | --- | --- | --- | --- | --- | --- |
| O=c1c(C(c2ccccn2)c2c(O)oc3cc(O)ccc3c2=O)c(O)oc2cc(O)ccc12 | > 100 µM (inactive) | > 100 µM (inactive) | > 100 µM (inactive) | > 100 µM (inactive) | > 100 µM (inactive) | > 100 µM | > 100 µM (inactive) | > 100 µM (inactive) | > 100 µM (inactive) | > 100 µM (inactive) | > 100 µM (inactive) | > 100 µM (inactive) | > 100 µM (inactive) | > 100 µM (inactive) | > 100 µM (inactive) | > 100 µM (inactive) | 66.2 µM (inactive) | > 100 µM (inactive) | > 100 µM (inactive) | > 100 µM (inactive) |
| COc1ccc(-c2c3c(nc4nc(SC)nc(SC)c24)CCCC3)cc1OC | > 100 µM (inactive) | 21.3 µM (inactive) | > 100 µM (inactive) | 70 µM (inactive) | > 100 µM (inactive) | 16 µM | 40.2 µM (inactive) | 36.6 µM (inactive) | 81.3 µM (inactive) | 46.6 µM (inactive) | 29.2 µM (inactive) | 25.9 µM (inactive) | 57.5 µM (inactive) | 80.2 µM (inactive) | > 100 µM (inactive) | > 100 µM (inactive) | 28.2 µM (inactive) | 38.5 µM (inactive) | > 100 µM (inactive) | 37.1 µM (inactive) |
| CC(=O)c1cccc(NC(=O)C(=O)C(C(=O)NN)c2ccccc2)c1 (configuration not stated) | > 100 µM (inactive) | > 100 µM (inactive) | > 100 µM (inactive) | > 100 µM (inactive) | 51.6 µM (inactive) | > 100 µM | > 100 µM (inactive) | > 100 µM (inactive) | > 100 µM (inactive) | > 100 µM (inactive) | > 100 µM (inactive) | > 100 µM (inactive) |  | > 100 µM (inactive) | > 100 µM (inactive) | > 100 µM (inactive) | > 100 µM (inactive) | > 100 µM (inactive) | > 100 µM (inactive) | > 100 µM (inactive) |
| O=C1Cc2c(-c3ccccc3)cc(-c3ccccc3)nc2-c2ccccc2N1 | 5.61 µM (inactive) | 17.2 µM (inactive) | 2.21 µM (inactive) | 13.2 µM (inactive) | 2.71 µM (inactive) | 1.57 µM | 21.3 µM (inactive) | 3.61 µM (inactive) | 2.84 µM (inactive) | 4.37 µM (inactive) | 4.01 µM (inactive) | 4.61 µM (inactive) | 3.17 µM (inactive) | 2.38 µM (inactive) | 5.22 µM (inactive) | 4.04 µM (inactive) | 2.59 µM (inactive) |  | 19.6 µM (inactive) | 3.71 µM (inactive) |
| O=C1C=CC(=O)C1(Br)Br | 13.8 µM (inactive) | 7.55 µM (inactive) | 10 µM (inactive) | 14.5 µM (inactive) | 16.2 µM (inactive) | 6.53 µM | 16.3 µM (inactive) | 7.38 µM (inactive) | 13.1 µM (inactive) | 12.1 µM (inactive) | 19.3 µM (inactive) | 6.37 µM (inactive) | 17.2 µM (inactive) | 16.9 µM (inactive) | 21 µM (inactive) | 7.96 µM (inactive) | 12 µM (inactive) | 2.67 µM (inactive) | 16.1 µM (inactive) | 6.27 µM (inactive) |
| O=c1[nH]c(=O)n(C2CC(O)C(CO)O2)cc1C#Cc1cc(C(F)(F)F)cc(C(F)(F)F)c1 (configuration not stated) | > 24.7 µM (inactive) | > 100 µM (inactive) | > 21.3 µM (inactive) | 40.3 µM (inactive) | > 32 µM (inactive) | > 50.7 µM | 33.8 µM (inactive) | > 31.8 µM (inactive) | > 30.8 µM (inactive) | > 25.5 µM (inactive) |  | 8.87 µM (inactive) | 17.3 µM (inactive) | > 27.4 µM (inactive) | 91.2 µM (inactive) | > 27.9 µM (inactive) | 21.1 µM (inactive) | > 100 µM (inactive) | > 37.5 µM (inactive) | > 30.6 µM (inactive) |
| CCOC(=O)C(C(C)=O)C1CC=CC1 (configuration not stated) | > 100 µM (inactive) | > 100 µM (inactive) | > 100 µM (inactive) | > 100 µM (inactive) | > 100 µM (inactive) | > 100 µM | > 100 µM (inactive) | > 100 µM (inactive) | > 100 µM (inactive) | > 100 µM (inactive) | > 100 µM (inactive) | > 100 µM (inactive) | > 100 µM (inactive) | > 100 µM (inactive) | > 100 µM (inactive) | > 100 µM (inactive) | > 100 µM (inactive) | > 100 µM (inactive) | > 100 µM (inactive) | > 100 µM (inactive) |
